Results from the NIST ThermoML archive (doi:10.1021/acs.jced.7b00704).
Numbers after ± are expanded uncertainties.

How the values were obtained:
[1] = refractive index (Na D-line) (dimensionless); conditions: Liquid, Standard Abbe refractometry
[2] = Liquid, Ebulliometric method (Recirculating still)

For `COC(=O)OC` [dimethyl carbonate], the refractive index ([1]; 293.15 K, 93 kPa) was 1.3688 ± 0.0004, the refractive index ([1]; 298.15 K, 101.33 kPa) was 1.3664 ± 0.00042 and the “vapor or sublimation pressure” value ([2]; 360.73 K) was 93.13 ± 0.96 kPa.
In the case of `CCOC(C)=O` [ethyl acetate], the refractive index ([1]; 293.15 K, 93 kPa) is reported as 1.3724 ± 0.0004, the refractive index ([1]; 298.15 K, 101.33 kPa) is reported as 1.3698 ± 0.00038 and the “vapor or sublimation pressure” value ([2]; 347.58 K) is reported as 93.13 ± 0.95 kPa.
For `COC(C)=O` [methyl ethanoate], the refractive index ([1]; 293.15 K, 93 kPa) was 1.3615 ± 0.0004, the refractive index ([1]; 298.15 K, 101.33 kPa) was 1.35872 ± 0.00042 and the “vapor or sublimation pressure” value ([2]; 327.63 K) was 93.13 ± 0.96 kPa.
In the case of `CCCOC(C)=O` [propyl ethanoate], the refractive index ([1]; 293.15 K, 93 kPa) is reported as 1.3843 ± 0.0005, the refractive index ([1]; 298.15 K, 101.33 kPa) is reported as 1.38181 ± 0.00054 and the “vapor or sublimation pressure” value ([2]; 372.05 K) is reported as 93.13 ± 0.97 kPa.
